A short description of the data set: Solubility in water of riboflavin types. The settings on record: compared with other types of riboflavin. Type of data set: physicochemical.

For `Cc1cc2nc3c(=O)[nH]c(=O)nc-3n(C[C@H](O)[C@H](O)[C@H](O)COP(=O)(O)O)c2cc1C` [riboflavin 5′ phosphate], the solubility in water entry was “most soluble in water”.

(Values after patent publication US20210371782A1, “METHODS FOR OPTICAL MICROPATTERNING OF HYDROGELS AND USES THEREOF” (President and Fellows of Harvard College, priority 2016, published 2021).)
